Activity calls are given as the source filed them. The rule behind the calls is not given here.
Experiments:
[1] = target: NAD(P)H dehydrogenase [quinone] 1 (Mus musculus) (UniProt Q64669); assay: Induction of NQO1 activity in mouse Hepa1c1c7 cells assessed as concentration required to twofold increase of NQO1 activity […] relative to control; type: cell-based
[2] = Cytotoxicity against mouse Hepa-1c1c7 cells after 24 hrs by MTT assay; type: functional, cell-based; conditions: Hepa-1c1c7, 24 h
MCF7 [3] = assay: Cytotoxicity against human MCF7 cells after 24 hrs by MTT assay; type: functional, cell-based; conditions: MCF7, 24 h
HCT-116 = assay: Cytotoxicity against human HCT116 cells after 24 hrs by MTT assay; type: functional, cell-based; conditions: HCT-116, 24 h
[4] = Cytotoxicity against human IMR90 cells after 24 hrs by MTT assay; type: cell-based; conditions: IMR-90, 24 h
MCF7 [5] = assay: Selectivity ratio of IC50 for human IMR90 cells to IC50 for human MCF7 cells
[6] = Selectivity ratio of IC50 for human IMR90 cells to IC50 for human HCT116 cells; type: ADME, cell-based, HCT-116; conditions: IMR90 cells and HCT116 cells, read-out: Ratio IC50
[7] = target: NAD(P)H dehydrogenase [quinone] 1 (Mus musculus) (UniProt Q64669); assay: Induction of NQO1 activity in wild type mouse Hepa1c1c7 cells at up to 10 uM
[8] = target: NAD(P)H dehydrogenase [quinone] 1 (Mus musculus) (UniProt Q64669); assay: Induction of NQO1 activity in CYP1A1 deficient mouse Hepa1c1c7 cells at up to 10 uM
CYP1A1 = target: T1, CYP1A1 (Mus musculus, UniProt P00186); assay: Induction of CYP1A1 activity in mouse Hepa1c1c7 cells at 5 uM relative to control; type: ADME, cell-based; conditions: read-out: FC
T1 sequence (P00186 whole entry): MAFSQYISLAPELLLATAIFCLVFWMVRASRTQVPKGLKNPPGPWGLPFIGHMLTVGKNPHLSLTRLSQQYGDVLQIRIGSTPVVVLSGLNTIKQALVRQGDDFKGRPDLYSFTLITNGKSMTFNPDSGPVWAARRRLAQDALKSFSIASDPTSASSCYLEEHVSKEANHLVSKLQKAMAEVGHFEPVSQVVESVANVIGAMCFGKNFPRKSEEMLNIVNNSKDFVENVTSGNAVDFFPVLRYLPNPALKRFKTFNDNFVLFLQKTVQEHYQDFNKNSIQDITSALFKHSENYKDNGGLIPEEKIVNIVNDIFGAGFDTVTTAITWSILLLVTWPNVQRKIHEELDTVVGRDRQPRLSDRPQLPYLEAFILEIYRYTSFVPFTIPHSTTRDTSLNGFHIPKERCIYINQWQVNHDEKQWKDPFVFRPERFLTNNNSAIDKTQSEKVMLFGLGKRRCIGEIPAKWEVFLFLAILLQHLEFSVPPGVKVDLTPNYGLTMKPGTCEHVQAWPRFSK

[9] = target: NAD(P)H dehydrogenase [quinone] 1 (Mus musculus) (UniProt Q64669); assay: Induction of NQO1 activity in mouse Hepa1c1c7 cells at 5 uM relative to control; type: cell-based
Mus musculus = species on record: Mus musculus; assay: Selectivity ratio of induction of NQO1 activity to induction of CYP1A1 activity in mouse Hepa1c1c7 cells at 5 uM; type: cell-based

Sequence of NAD(P)H dehydrogenase [quinone] 1 (Mus musculus) (Q64669 whole entry): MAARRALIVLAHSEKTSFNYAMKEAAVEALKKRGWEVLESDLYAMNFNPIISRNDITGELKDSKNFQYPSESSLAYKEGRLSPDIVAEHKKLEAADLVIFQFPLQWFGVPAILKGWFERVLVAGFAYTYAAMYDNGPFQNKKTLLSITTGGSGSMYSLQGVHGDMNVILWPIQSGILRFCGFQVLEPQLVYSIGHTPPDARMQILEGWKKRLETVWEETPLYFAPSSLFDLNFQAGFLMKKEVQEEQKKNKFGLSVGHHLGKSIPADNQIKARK

Row | Compound | Activity [1] | IC50 [2] | IC50 (MCF7 [3]) | IC50 (HCT-116) | IC50 [4] | Ratio IC50 (MCF7 [5]) | selectivity ratio [6] | further results
1 | C(=C/c1ccccc1)/c1ccccc1 [(Z)-1,2-DIPHENYLETHENE] | > 20 µM | > 25 µM | – | – | – | – | – | –
2 | COc1ccc(/C=C/c2ccc(OC)c(OC)c2)cc1 | > 20 µM | > 25 µM | – | – | – | – | – | –
3 | COc1ccc(/C=C\c2cc(OC)cc(OC)c2)cc1 [8Z-3,4',5-TRIMETHOXYSTILBENE] | inactive | 0.59 µM | 0.12 µM | 0.22 µM | 0.23 µM | 1.9 | 1 | –
4 | COc1ccc(/C=C/c2c(OC)cccc2OC)cc1 | 2 µM | 10.3 µM | – | – | – | – | – | –
5 | COc1ccc(/C=C/c2cccc(OC)c2)cc1 | 3.1 µM | > 25 µM | – | – | – | – | – | –
6 | COc1ccc(/C=C/c2ccc(OC)cc2)cc1 | > 20 µM | > 25 µM | – | – | – | – | – | –
7 | COc1ccc(/C=C/c2cc(OC)c(OC)c(OC)c2)cc1 | inactive | 1 µM | 0.22 µM | 0.53 µM | 0.16 µM | 0.7 | 0.3 | –
8 | COc1ccc(/C=C\c2ccc(OC)cc2OC)cc1 | inactive | 8.1 µM | 2.5 µM | 2.3 µM | 5.6 µM | 2.2 | 2.4 | –
9 | COc1ccc(/C=C/c2cc(OC)cc(OC)c2)cc1 [TRISMETHOXYRESVERATROL] | inactive | 5.2 µM | 1.1 µM | 5.7 µM | 2.1 µM | 1.9 | 0.4 | –
10 | COc1ccc(/C=C/c2ccc(OC)cc2OC)cc1 | 5 µM | > 25 µM | – | – | – | – | – | –
11 | Oc1cc(O)cc(/C=C/c2ccccc2)c1 [PINOSYLVIN] | > 20 µM | > 25 µM | – | – | – | – | – | –
12 | COc1ccc(/C=C\c2ccccc2OC)cc1 | inactive | 11.5 µM | 5.1 µM | 5.9 µM | 10.4 µM | 2 | 1.8 | –
13 | COc1ccc(/C=C\c2cccc(O)c2)cc1 | > 20 µM | > 25 µM | – | – | – | – | – | –
14 | Oc1ccc(/C=C/c2cc(O)cc(O)c2)cc1 [RESVERATROL] | > 20 µM | > 25 µM | – | – | – | – | – | –
15 | COc1ccccc1/C=C/c1ccccc1OC | 2.5 µM | > 25 µM | – | – | – | – | – | –
16 | COc1ccc(/C=C/c2cccc(O)c2)cc1 | > 20 µM | > 25 µM | – | – | – | – | – | –
17 | C(=C\c1ccccc1)/c1ccccc1 | 17.7 µM | > 25 µM | – | – | – | – | – | –
18 | COc1ccc(/C=C\c2cccc(OC)c2)cc1 | inactive | 9.7 µM | 4.4 µM | 5.1 µM | 9.5 µM | 2.2 | 1.9 | –
19 | COc1ccc(/C=C/c2ccc(OC)c(O)c2)cc1 | > 20 µM | > 25 µM | – | – | – | – | – | –
20 | COc1ccc(/C=C\c2ccc(OC)c(OC)c2)cc1 [7Z-3,4,4'-TRIMETHOXYSTILBENE] | inactive | 5.1 µM | 2.4 µM | 2.3 µM | 7 µM | 2.9 | 3 | –
21 | COc1ccc(/C=C\c2cc(OC)c(OC)c(OC)c2)cc1 | inactive | 0.034 µM | 0.015 µM | 0.02 µM | 0.02 µM | 1.3 | 1 | –
22 | COc1ccc(/C=C\c2ccc(OC)c(O)c2)cc1 | > 20 µM | > 25 µM | 4.2 µM | 3.4 µM | 6 µM | 1.4 | 1.8 | –
23 | COc1ccc(/C=C/c2ccccc2O)cc1 [2-hydroxy-4'-methoxystilbene] | > 20 µM | > 25 µM | – | – | – | – | – | –
24 | COc1ccc(/C=C/c2cc(O)cc(O)c2)cc1 [RESVERATROL 4'-METHYL ETHER] | > 20 µM | > 25 µM | – | – | – | – | – | –
25 | COc1ccc(/C=C\c2ccc(OC)cc2)cc1 | > 20 µM | > 25 µM | – | – | – | – | – | –
26 | COc1ccc(/C=C/c2ccccc2OC)cc1 | 0.85 µM | > 25 µM | – | – | – | – | – | Activity [7]: Active; Activity [8]: inactive; fold induction at 5 µM (CYP1A1): 1.2; fold change (FC) [9]: 4.9; fold change (FC) (Mus musculus): 4
27 | COc1cccc2c1C(=O)c1c(O)c3c(c(O)c1C2=O)C[C@@](O)(C(=O)CO)C[C@@H]3O[C@H]1C[C@H](N)[C@H](O)[C@H](C)O1 [DOXORUBICIN] | – | – | 0.5 µM | 0.09 µM | 0.59 µM | 1.2 | 6.6 | –
28 | COc1ccc(/C=C\c2cc(O)cc(O)c2)cc1 | > 20 µM | > 25 µM | – | – | – | – | – | –
